{"source": "patent US20100172972A1", "about": "“ENTERIC COATED PHARMACEUTICAL COMPOSITIONS” (priority 2007, published 2010)", "origin": "cited, not measured here", "key": {"[1]": {"experiment": "not given", "remark": "listed apart in the source"}}, "note": "Where a name gives a salt, the structure may show the parent alone."}
{"smiles": "CNCC[C@H](Oc1cccc2ccccc12)c1cccs1", "note": "[Duloxetine hydrochloride]", "values": [{"measurement": "drug in the dosage hydrolyzed to 1-naphthol", "setting": "pH 1.0", "result": 50, "unit": "%"}, {"measurement": "drug in the dosage degrades to 1-naphthol", "setting": "pH 2.0, in one hour", "result": 10, "unit": "%"}, {"measurement": "time for 10% degradation", "setting": "pH 4.0", "result": "up to 63 hours"}]}
{"smiles": "CNCC[C@H](Oc1cccc2ccccc12)c1cccs1", "note": "[Duloxetine]", "values": [{"measurement": "solubility in water", "setting": "[1]", "result": "slightly soluble in water"}]}
